Results on six compounds are retold here after patent US4584376A, “1-heterocyclicthio-1-cyclopropanecarbonitriles as crop protectants” (Monsanto Company, priority 1982, dated 1986).

SMILES strings stand for the structures. Where “and” joins values, the source holds several entries; their conditions need not be identical. Equal values may be shown once.

Holding throughout (type): in vivo
For one assay, the system named is Rice. Nature of the assay: Greenhouse safening test: % plant inhibition of rice by herbicide with and without safener. As to conditions: approx. 21 days; for % Plant Inhibition, Rice (herbicide alone): right-hand figure; for % Plant Inhibition, Rice (herbicide plus safener): left-hand figure. Here is the method:
(§1) Seed plantings and the sequential application of the herbicide and safening agents are accomplished in the following manner:
(§2) A fumigated silt loam to top soil is placed in a container and compacted to a depth of approximately 1.27 cm. from the top of said container. A predetermined number of seeds of each of the crop species to be tested are placed on top of the soil. A quantity of soil sufficient to substantially fill the container is measured and placed in a second container. A measured quantity of the herbicide dispersed or dissolved in a suitable carrier is applied to the soil in the second container. A measured quantity of the safening agent dispersed or dissolved in a suitable carrier is thereafter sprayed on the soil already treated with the […]. The soil containing the safening agent and/or herbicide is thoroughly mixed. This mixing is sometimes referred to as incorporation of the herbicide and safening agent into the soil. The mixing or incorporation provides a substantially uniform distribution of the safening agent and herbicide throughout the soil. The seeds are covered with the soil containing the safening agent and/or herbicide or with untreated soil, and the pots are leveled. The pots are then placed on a sand bench in a greenhouse and watered from below as needed. When the seeds are treated with safener, the application of the safener to the soil is omitted. The coated seeds are placed on top of the soil in the pot and the balance of the treatment procedure is the same. The plants are observed at the end of approximately 21 days and the results in terms of percent inhibition of growth are recorded.
(§3) For each test series, a pot is also prepared containing no herbicide and no safening agent as a control. For each treatment, the herbicidal activity is observed on pots treated with the same quantity of herbicide alone. The results are observed and recorded as percent inhibition of each plant species tested. The tank mixes of know herbicides, safeners or combinations thereof were prepared by dissolving the appropriate amount of active ingredient in acetone. In Table 2 the results of testing the compounds of the present invention have been set forth. The rates of herbicide application are given in kilograms per hectare. In each treatment the amount of safener employed was 9.0 kilograms per hectare. In the % Plant Inhibition section of Table 2 under the listed crop columns the data are the inhibitions for herbicide plus safener on the left side and for the herbicide alone on the right side. The known herbicides are identified as follows. Throughout the examples, the herbicides are individually identified by reference numbers H-1 and H-2.

The subject of a further assay is Sorghum. Nature of the assay: Greenhouse safening test: % plant inhibition of sorghum by herbicide with and without safener. As to conditions: approx. 21 days; for % Plant Inhibition, Sorghum (herbicide plus safener): H-1 (alachlor) 2.2 kg/ha plus safener 9.0 kg/ha, left-hand figure. Here is the method:
as §1, §2, §3

The next assay concerns Wheat. Nature of the assay: Greenhouse safening test: % plant inhibition of wheat by herbicide with and without safener. As to conditions: approx. 21 days; for % Plant Inhibition, Wheat (herbicide plus safener): H-1 (alachlor) 2.2 kg/ha plus safener 9.0 kg/ha, left-hand figure. The procedure: as §1, §2, §3
Setting [1] is: H-1 (alachlor) 2.2 kg/ha alone, right-hand figure.
The mark [2] stands for this setting: H-2 (butachlor) 4.5 kg/ha plus safener 9.0 kg/ha.

For `CCCCOCN(C(=O)CCl)c1c(CC)cccc1CC` [Compound H-2, 2-chloro-2',6'-diethyl-N-(butoxymethyl) acetanilide, reference compound], the “% Plant Inhibition, Rice (herbicide alone)” value in the assay on Rice (H-2 (butachlor) 4.5 kg/ha alone) was 90% and 75% and 60%.

As to `CCc1cccc(CC)c1N(COC)C(=O)CCl` [Compound H-1, 2-chloro-2',6'-diethyl-N-(methoxymethyl) acetanilide, reference compound], the “% Plant Inhibition, Sorghum (herbicide alone)” value with Sorghum (setting [1]) was 90% and 80% and 85%. Besides, the “% Plant Inhibition, Rice (herbicide alone)” value in the assay on Rice (H-1 (alachlor) 2.2 kg/ha alone) is 90%. Moreover, the “% Plant Inhibition, Wheat (herbicide alone)” value with Wheat (setting [1]) was 90% and 75% and 80%.

For `Cc1ccnc(SC2(C#N)CC2)n1` [Compound 3, 1-[(4-methyl-2-pyrimidinyl)thio]-1-cyclopropanecarbonitrile], the “% Plant Inhibition, Sorghum (herbicide plus safener)” value in the assay on Sorghum was determined as 95%. In addition, the “% Plant Inhibition, Rice (herbicide plus safener)” value in the assay with Rice (setting [2]) was 40%. In the assay on Wheat, the “% Plant Inhibition, Wheat (herbicide plus safener)” value is 90%.

For the compound `N#CC1(Sc2nc(-c3ccccc3)cs2)CC1` [Compound 2, 1-[(4-phenyl-2-thiazolyl)thio]-1-cyclopropanecarbonitrile], the “% Plant Inhibition, Sorghum (herbicide plus safener)” value in the assay with Sorghum turned out to be 45%. Further, the “% Plant Inhibition, Rice (herbicide plus safener)” value in the assay with Rice (H-1 (alachlor) 2.2 kg/ha plus safener 9.0 kg/ha) came to 95%; in the assay with Rice (setting [2]) it was 90%.

For the compound `Cn1ccnc1SC1(C#N)CC1` [Compound 4, 1-[(1-methyl-1H--imidazol-2-yl)thio]-1-cyclopropanecarbonitrile], the “% Plant Inhibition, Sorghum (herbicide plus safener)” value with Sorghum is 20%. Besides, the “% Plant Inhibition, Rice (herbicide plus safener)” value with Rice (setting [2]) is recorded as 95%. For the same compound, the “% Plant Inhibition, Wheat (herbicide plus safener)” value with Wheat is on record as 100%.

For the compound `Cn1c(SC2(C#N)CC2)nnc1C(F)(F)F` [Compound 1, 1([4-methyl-5-(trifluoromethyl)4H.1,2,4-triazol-3 yl]thio)-1-cyclopropanecarbonitrile], the “% Plant Inhibition, Sorghum (herbicide plus safener)” value in the assay with Sorghum was 100%. Further, the “% Plant Inhibition, Rice (herbicide plus safener)” value with Rice (setting [2]) is 95%. The “% Plant Inhibition, Wheat (herbicide plus safener)” value in the assay on Wheat is 75%.
